The values that follow come from patent US6331287A, “2'-deoxy-2'-fluoro-d-arabinofuranosyl pyrimidine nucleoside” (University Advanced Bio-imaging Associates, priority 1998, dated 2001).

Entries after “also recorded” stand apart in the source; their conditions may differ. Where two headings read alike, the source gives them in different places.

For data set [1] the following is noted: cited from earlier work.
The next data set has as its system host DNA. As to conditions: cited from earlier work.
Data set [2] concerns organs with rapidly dividing cells such as the small intestine and spleen. As to conditions: rats; cited from earlier work.
Another data set has as its system PC12 cells. The settings on record: in culture; cited from earlier work.
The test system of the next data set is Vero cells. As to conditions: in culture; cited from earlier work.
For data set [3] the following is noted: mice, cited from earlier work.
The conditions of data set [4]: rats, cited from earlier work.
For data set [5] the following is noted: dogs, cited from earlier work.
For the next data set, the system named is thymidine incorporation. As to conditions: read-out: ED50 for inhibition of thymidine incorporation; cited from earlier work. On the technique in general: Dividing cells build labelled thymidine or BrdU into new DNA.
The test system of a further data set is mammalian kinases. As to conditions: relative to thymidine, cell culture systems; cited from earlier work.
For the next data set, the system named is viral kinases. The settings on record: relative to thymidine, cell culture systems; cited from earlier work.
For data set [6] the following is noted: patients, Phase I; cited from earlier work.
For data set [7] the following is noted: dogs; cited from earlier work.
A short description of data set [8]: Storage stability of compound 2. The data set is classed as physicochemical. As to conditions: after flash chromatography, anhydrous conditions. Here is the method: After purification by flash chromatography compound 2 could be stored at room temperature for at least 10 months under anhydrous conditions. Its melting point was broad due to the fact that a mixture of four diastereomers were probably present. Treatment of compound 2 with n-butyllithium (2.5 equivalent) produced the dianion 3 in situ which was treated with either unlabeled or [^11 C]-methyl iodide to produce the methylated product 4. The major by-product in the methylation reaction was the dehalogenated compound 5. The ratio of the desired product to the by-product was 43:57, as determined by ^1 HNMR integration of the C6 hydrogen. Deprotection of the tetrahydropyranyl ether produced the desired compound FMAU in 82% chemical yield.

A short description of data set [9]: Plasma clearance of [^11 C]FMAU or [^11 C]TdR after intravenous bolus in dogs (FIG. 1). The data set is classed as in vivo. The settings on record: dog; for plasma clearance: intravenous.
A short description of data set [10]: HPLC analysis of plasma samples for radiolabeled metabolites in dogs. The data set is classed as in vivo. The settings on record: dog, FMAU over 90 minutes.
The subject of data set [11] is brain tumor (gliosarcoma). As to conditions: dogs not infected by herpes simplex virus, PET.
Setting [12] is: intravenous, through 24 hours, HPLC.
Where [13] appears, read: intravenous bolus 20-25 mCi, 50-100 Ci/mmol, two components of approximately equal amplitudes.

Regarding `O=c1[nH]c(=O)n([C@@H]2O[C@H](CO)[C@@H](O)[C@@H]2F)cc1I` [FIAU, 2'-Fluoro-5-iodo-1-β-D-arabinofuranosyluracil], in [1], the “dehalogenation / deiodination in vivo” value is given as “deiodination followed by methylation at the 5 position of the base also can occur prior to DNA incorporation”.
`Cc1cn([C@@H]2O[C@H](CO)[C@@H](O)[C@@H]2F)[14c](=O)[nH]c1=O` [[2-^14 C]-FMAU]: the “incorporation into host DNA” value in the data set on host DNA is given as “substantial incorporation”. Besides, in data set [2], the “accumulation in small intestine and spleen” value is “preferentially observed”. Also, the “accumulation in proliferating PC12 cells” value in the data set on PC12 cells is given as “preferentially observed”. The “accumulation in proliferating Vero cells” value in the data set on Vero cells is on record as “preferentially observed”. Further, the “composition of urine radioactivity” value in data set [3] (setting [12]), in data set [4] (setting [12]) and in data set [5] (setting [12]) was “primarily of unchanged parent compound” each time. Also, the “injected radioactivity cleared into the urine” value in data set [3] (intravenous), in data set [4] (intravenous) and in [5] (intravenous) was “Nearly all” throughout. The “four minor metabolites, share of total urine radioactivity” value in [3] (urine at 24 hr) is below 15%; in [4] (urine at 24 hr), below 5%; in data set [5] (urine at 24 hr) it was “less than 3%”.
Consider `Nc1nc(=O)n([C@@H]2O[C@H](CO)[C@@H](O)[C@@H]2F)cc1[125I]` [[^125 I] labeled FIAC, [^125 I]2'-fluoro-5-iodo-1-β-D-arabinofuranosyl-cytosine], for which the “dehalogenation / deiodination in vivo” value in data set [1] is “extensive deiodination in vivo”.
On to `Cc1cn([C@@H]2O[C@H](CO)[C@@H](O)[C@@H]2F)c(=O)[nH]c1=O` [FMAU, 2'-fluoro-5-methyl-1-β-D-arabinofuranosyluracil], for which the IC50 in the data set with thymidine incorporation was 8 to 28 µM. Besides, the “phosphorylation by mammalian kinases” value in the data set with mammalian kinases was “phosphorylated by mammalian kinases to levels approaching that of thymidine; also recorded: good substrate relative to thymidine”. Moreover, the “phosphorylation by viral kinases” value in the data set on viral kinases is “good substrate relative to thymidine”. For the same molecule, the “glucuronide adduct of FMAU among trace metabolites” value in data set [5] (urine, present in all three species) was “most abundant in dogs”. For the same molecule, the “dose above which significant dose-limiting neurotoxicity developed” value in data set [6] is “above 8 mg/m^2×5 days”. Moreover, the LD10 in [7] is reported as 25 mg/m^2×10 days.
Consider `O=c1[nH]c(=O)n([C@@H]2O[C@H](COC3CCCCO3)[C@@H](OC3CCCCO3)[C@@H]2F)cc1I` (stereo partly drawn) [compound 2, 3', 5'-O-bis-(tetrahydropyranyl)-2'-fluoro-5-iodo-1-β-D-arabino-furanosyluracil], for which, in data set [8], the “storage stability at room temperature” value was “at least 10 months”.
With `[11CH3]c1cn([C@@H]2O[C@H](CO)[C@@H](O)[C@@H]2F)c(=O)[nH]c1=O` [[^11 C]FMAU, 2'-fluoro-5-[^11 C-methyl]-1-β-D-arabinofuranosyluracil], the plasma clearance result in [9] was “rapid plasma clearance”. Moreover, in [9] (setting [13]), the “half time of first exponential component of plasma activity concentration curve” value is 2.4 min and the “half time of second exponential component of plasma activity concentration curve” value amounted to 63 min. Besides, the plasma clearance result in data set [9] (listed as [^11 C] FMAU) is reported as “rapid clearance”. In addition, in data set [10], the “radiolabeled metabolites in plasma” value is given as “no radiolabeled metabolites”. The “localization in brain tumor / tumor visualization” value in [11] is recorded as “localized selectively within the proliferating cells of brain tumors, but not in normal brain cells; also recorded: the tumor was well visualized; also recorded: accumulated within brain tumor cells that were not infected with herpes simplex virus”.
As to `[11CH3]c1cn([C@H]2CC(O)[C@@H](CO)O2)c(=O)[nH]c1=O` (stereo partly shown) [[^11 C]TdR], in [9], the plasma clearance entry is “rapid plasma clearance”. Moreover, the “radiolabeled metabolites in plasma” value in data set [10] is recorded as “progressive rise in radiolabeled metabolites”.
Turning to `O=c1[nH]c(=O)n([C@H]2C[C@H](O)[C@@H](CO)O2)cc1[131I]` [radioiodinated IUdR], the “dehalogenation / deiodination in vivo” value in [1] is on record as “significant dehalogenation”.
